Laboratory results taken from patent publication US3957812A, “Derivatives of 2-phenoxyacetamido-5-nitro-thiazole” (priority 1973, dated 1976).
≈ marks a conversion by molar mass, not a printed value. Where two headings read alike, the source gives them in different places.

Experiments:
[1] = test system: Escherichia coli OIII B 4; assay: Determination of bacteriostatic doses, O.III B 4; assay type: cell-based; conditions: gelose medium, 37°C, 24 hours
Experimental: (§1) (5) Method for determining bacteriostatic doses
(§2) A common gelose medium of the following composition is used.
(§3) The pH is adjusted at 7.2 and the medium is sterilized during 30 minutes at 120°C.
(§4) The same method as for the determination of fungistatic doses is used, except that the various dilutions of each compound are added to the gelose medium, the solvent concentration never exceeding 3%. Tubes containing […] of the compounds per ml are prepared.
(§5) Cultures of each strain in the liquid medium are prepared and, after 24 hours of incubation at 37°C, dilutions of these cultures in ordinary broth are prepared as follows:
Escherichia coli OIII B 4
(§6) By means of these dilutions, scratches of a length of 4 to 5 cm are made on the previously dried surface of the gelose medium to which various amounts of the compound to be tested have been added.

Entomoeba dysenteriae = assay: Test for amoebicidal activity; assay type: cell-based
Text: (§7) Biological tests have been performed with a great number of compounds of formula (I) using the following techniques: (1) Test for amoebicidal activity described by R. CAVIER, Ann. pharm. franc., 1960, 18, pages 583-589 and by R. CAVIER, and J. CENAC, Bull. Soc. Path. exot. 1972, 65, pages 399-404. (2) Test for trichomonacidal activity described by R. CAVIER and P. BUOT, Ann. pharm. franc., 1964, 22, pages 211-216 and by R. CAVIER and J. CENAC, Semaine des Hopitaux, 1972, 48, pages 391-394). (3) Tests for anthelminthics described for nematodes (such as Syphacia obvelata) by R. CAVIER, Bull. Soc. Path. exot., 1962, 55, pages 412-417 and, for cestodes (such as Hymenolepis nana), by R. CAVIER, Ann. pharm. franc., 1956, 14, pages 545-552 and by R. CAVIER and M. J. NOTTEGHEM, Ann. pharm. franc. 1968, 28, pages 603-606.

Enterococcus 9790 = assay: Determination of bacteriostatic doses, E. 9790; assay type: cell-based; conditions: gelose medium, 37°C, 24 hours; for MIC: Enterococcus, 9790, read-out: bacteriostatic dose, E. 9790
Experimental: as §1, §2, §3, §4, §5, §6

[2] = test system: Pseudomonas aeruginosa 8194; assay: Determination of bacteriostatic doses, Pseudo 8194; assay type: cell-based; conditions: gelose medium, 37°C, 24 hours
Experimental: as §1, §2, §3, §4, §5
Pseudomonas aeruginosa 8194
as §6

Syphacia obvelata = assay type: in vivo; design: Percentage of activity: concentration or dose not given beside the values; conditions: for Number of dead subjects (+): in vivo
Text: as §7

[3] = test system: Shigella dysenteriae 3410; assay: Determination of bacteriostatic doses, S. 3410; assay type: cell-based; conditions: for MIC: Shigella dysenteriae, 3410, 24 h, read-out: bacteriostatic dose, S. 3410
Experimental: as §1, §2, §3, §4, §5
Shigella dysenteriae 3410
as §6

[4] = test system: Staphylococcus aureus 209 P; assay: Determination of bacteriostatic doses, S. 209 P; assay type: cell-based; conditions: gelose medium, 37°C, 24 hours; for MIC: Staphylococcus aureus, 209P, read-out: bacteriostatic dose, S. 209 P
Experimental: as §1, §2, §3, §4, §5
Staphylococcus aureus 209 P
as §6

Epidermo flocosum = assay: Determination of fungistatic doses, E.f.; assay type: cell-based; conditions: liquid Sabouraud medium, 25°C, 10 days; for MIC: 240 h, read-out: fungistatic dose, E.f.
Experimental: (§8) (4) Method for determining fungistatic doses:
(§9) A liquide Sabouraud medium having the following composition is used:
(§10) If necessary, the pH is adjusted at 6.4 and the medium is sterilized.
(§11) The compounds are dissolved in dimethylformamide to which polyethylene glycol is sometimes added. From the mother-liquor, successive diluted solutions are prepared in the liquid Sabouraud medium, so as to obtain concentrations of 1, 3, 10, 30 100 and […] per ml. For the first dilution, one should not add more than 10% of the mother-liquor to the Sabouraud medium. Subsequently 9 ml per tube of the various solutions in the liquid Sabouraud medium are distributed.
(§12) Reference tubes corresponding to the highest solvent concentrations are also prepared.
(§13) Cultures of the various dermatophyte strains on Sabouraud gelose medium are prepared. From 1 to 2 months old cultures, homogeneous suspensions of said cultures in the liquid Sabouraud medium are prepared, the obtained suspensions being stirred in the presence of glass pearls having a light transmission of about 40%.
(§14) One drop of said suspension is introduced in the tubes containing the various concentrations of the compound to be tested.
(§15) at 25°C ± 2°C in the dark
(§16) 10 days of incubation for dermatophytes.

[5] = test system: Proteus morganii IP 53185; assay: Determination of bacteriostatic doses, P. morg.; assay type: cell-based; conditions: gelose medium, 37°C, 24 hours
Experimental: as §1, §2, §3, §4, §5
Proteus morganii IP 53185
as §6

Hymenolepis nana = assay: Test for anthelminthics, cestodes (Hymenolepis nana); assay type: in vivo; design: Percentage of activity: concentration or dose not given beside the values; conditions: number of subjects 10
Text: as §7

Microsporum felineum = assay: Determination of fungistatic doses, M.f.; assay type: cell-based; conditions: liquid Sabouraud medium, 25°C, 10 days
Experimental: as §8, §9, §10, §11, §12, §13, §14, §15, §16

[6] = test system: Trichophyton mentagrophytes; assay: Determination of fungistatic doses, T.m.; assay type: cell-based; conditions: liquid Sabouraud medium, 25°C, 10 days; for MIC: Trichophyton mentagrophytes, 240 h, read-out: fungistatic dose, T.m
Experimental: as §8, §9, §10, §11, §12, §13, §14, §15, §16

Trichomonas vaginalis = assay: Test for trichomonacidal activity; assay type: cell-based; conditions: for minimal effective concentration: Trichomonas vaginalis, read-out: Trichomonas vaginalis starting activity
Text: as §7

bacteria = assay: Activity against bacteria; assay type: cell-based; conditions: in words
Experimental: as §1, §2, §3, §4, §5, §6

fungi = assay: Activity against fungi; assay type: cell-based; conditions: in words
Experimental: as §8, §9, §10, §11, §12, §13, §14, §15, §16

in vivo [7] = conditions: mouse, po, orally administered to mice
Experimental: The LD50 of compounds PH 6099 and 5927, when orally administered to mice, is of more than 4000 mg/kg.

in vivo [8] = conditions: mouse, ip, intraperitoneal administration to mice, read-out: acute toxicity (LD50)
Microsporum audouini = assay: Determination of fungistatic doses, M.a.; assay type: cell-based; conditions: 240 h, liquid Sabouraud medium, 25°C, 10 days, read-out: fungistatic dose, M.a.
Experimental: as §8, §9, §10, §11, §12, §13, §14, §15, §16

Trichophyton rubrum = assay: Determination of fungistatic doses, T.r.; assay type: cell-based; conditions: 240 h, liquid Sabouraud medium, 25°C, 10 days, read-out: fungistatic dose, T.r.
Experimental: as §8, §9, §10, §11, §12, §13, §14, §15, §16

Proteus vulgaris 8181 = assay: Determination of bacteriostatic doses, 8181; assay type: cell-based; conditions: gelose medium, 37°C, 24 hours, strain 8181, read-out: bacteriostatic dose, (8181) printed in column P. morg.
Experimental: as §1, §2, §3, §4, §5, §6

[9] = Syphacia obvelata, number of subjects 10

| Molecule | Percentage of activity (Syphacia obvelata; [9]) | Number of dead subjects (+) (Syphacia obvelata) | Number of dead subjects (+) (Hymenolepis nana) | Number of subjects from which the parasite has been eradicated (D) (Hymenolepis nana) | Percentage of activity (Hymenolepis nana) | MIC [4] | MIC (Epidermo flocosum) | MIC [6] | further results |
| --- | --- | --- | --- | --- | --- | --- | --- | --- | --- |
| 2-(2'-trifluoromethyl-3'-methylphenoxyacetamido)-5-nitrothiazole [PH 6306] | 0% | 0 | 0 | 0 | 0% | – | – | – | bacteriostatic dose, O.III B 4 [1]: 0 µg/mL; Entomoeba dysenteriae starting activity (Entomoeba dysenteriae): 5 mμ/ml; bacteriostatic dose, E. 9790 (Enterococcus 9790): 100 µg/mL; bacteriostatic dose, Pseudo 8194 [2]: 0 µg/mL; Number of subjects from which the parasite has been eradicated (D) (Syphacia obvelata; [9]): 0; bacteriostatic dose, S. 3410 ([3]; gelose medium, 37°C, 24 hours): 0 µg/mL; bacteriostatic dose, S. 209 P [4]: 10 µg/mL; fungistatic dose, E.f. (Epidermo flocosum): 30 µg/mL; bacteriostatic dose, P. morg. [5]: 0 µg/mL; fungistatic dose, M.f. (Microsporum felineum): 10 µg/mL; fungistatic dose, T.m [6]: 1 µg/mL |
| O=C(COc1ccccc1)Nc1ncc([N+](=O)[O-])s1 [2-phenoxyacetamido-5-nitro-thiazole] | – | – | – | – | – | – | – | – | activity against Trichomonas vaginalis (Trichomonas vaginalis; in words): no activity; activity against Entomoeba dysenteriae (Entomoeba dysenteriae; in words): no activity; activity against bacteria (bacteria): no activity; activity against fungi (fungi): no activity |
| O=C(COc1ccc(Cl)cc1)Nc1ncc([N+](=O)[O-])s1 [PH 5927] | 30% | 0 | 0 | 0 | 0% | 100 µg/mL (≈ 319 µM) | 10 µg/mL (≈ 31.9 µM) | 30 µg/mL (≈ 95.6 µM) | LD50 (in vivo [7]): > 4000 mg/kg; LD50 (in vivo [8]): > 4500 mg/kg |
| O=C(COc1ccc(Cl)cc1Cl)Nc1ncc([N+](=O)[O-])s1 [PH 6091] | 20% | 0 | 0 | 3 | 30% | 3 µg/mL (≈ 8.62 µM) | 1 µg/mL (≈ 2.87 µM) | 3 µg/mL (≈ 8.62 µM) | MIC (Microsporum felineum; Microsporum, 240 h, read-out: fungistatic dose, M.f.): 30 µg/mL (≈ 86.2 µM) |
| O=C(COc1ccc(Br)cc1)Nc1ncc([N+](=O)[O-])s1 [PH 6092] | 10% | 0 | 0 | 1 | 10% | 10 µg/mL (≈ 27.9 µM) | – | 100 µg/mL (≈ 279 µM) | minimal effective concentration (Trichomonas vaginalis): 100 µg/mL |
| Cc1cc(OCC(=O)Nc2ncc([N+](=O)[O-])s2)c(C(C)C)cc1Cl [PH 6099] | 20% | 0 | 0 | 4 | 40% | 3 µg/mL (≈ 8.11 µM) | – | – | minimal effective concentration (Trichomonas vaginalis): 100 µg/mL; LD50 (in vivo [7]): > 4000 mg/kg; MIC (Enterococcus 9790): 300 µg/mL (≈ 811 µM); MIC (Microsporum audouini): 0.1 µg/mL (≈ 0.27 µM); MIC [3]: 300 µg/mL (≈ 811 µM); LD50 (in vivo [8]): ~200 mg/kg; MIC (Trichophyton rubrum): 2 µg/mL (≈ 5.41 µM) |
| O=C(COc1cc(Cl)ccc1Cl)Nc1ncc([N+](=O)[O-])s1 [PH 6159] | 0% | 0 | 0 | 2 | 20% | – | – | 30 µg/mL (≈ 86.2 µM) | – |
| O=C(COc1ccc(F)cc1)Nc1ncc([N+](=O)[O-])s1 [PH 6160] | 0% | 0 | 0 | 0 | 0% | 10 µg/mL (≈ 33.6 µM) | 1 µg/mL (≈ 3.36 µM) | 4 µg/mL (≈ 13.5 µM) | MIC (Microsporum audouini): 4 µg/mL (≈ 13.5 µM); MIC [3]: 100 µg/mL (≈ 336 µM); MIC (Trichophyton rubrum): 4 µg/mL (≈ 13.5 µM) |
| O=C(COc1cc(C(F)(F)F)cc(C(F)(F)F)c1)Nc1ncc([N+](=O)[O-])s1 [PH 6167] | 40% | 0 | 0 | 7 | 70% | 3 µg/mL (≈ 7.22 µM) | 1 µg/mL (≈ 2.41 µM) | 1 µg/mL (≈ 2.41 µM) | MIC (Enterococcus 9790): 10 µg/mL (≈ 24.1 µM) |
| O=C(COc1c(F)c(F)c(F)c(F)c1F)Nc1ncc([N+](=O)[O-])s1 [PH 6168] | 0% | 0 | 0 | 2 | 20% | 10 µg/mL (≈ 27.1 µM) | 1 µg/mL (≈ 2.71 µM) | 1 µg/mL (≈ 2.71 µM) | MIC ([1]; Escherichia coli, OIIIB4, read-out: bacteriostatic dose, O.III B 4): 300 µg/mL (≈ 813 µM); MIC (Proteus vulgaris 8181): 300 µg/mL (≈ 813 µM); MIC (Enterococcus 9790): 10 µg/mL (≈ 27.1 µM); MIC (Microsporum audouini): 3 µg/mL (≈ 8.13 µM); MIC [3]: 300 µg/mL (≈ 813 µM) |
| Cc1cc(Cl)c(OCC(=O)Nc2ncc([N+](=O)[O-])s2)cc1C [PH 6305] | 10% | 0 | 0 | 0 | 0% | – | – | – | – |
| Cc1cc(OCC(=O)Nc2ncc([N+](=O)[O-])s2)ccc1Cl [PH 6314] | 0% | 0 | 0 | 0 | 0% | 3 µg/mL (≈ 9.15 µM) | – | – | minimal effective concentration (Trichomonas vaginalis): 2.5 µg/mL |
